The assay concerns the target T1, hCCR4 (Homo sapiens, UniProt P51679).
T1 sequence (P51679 1-360): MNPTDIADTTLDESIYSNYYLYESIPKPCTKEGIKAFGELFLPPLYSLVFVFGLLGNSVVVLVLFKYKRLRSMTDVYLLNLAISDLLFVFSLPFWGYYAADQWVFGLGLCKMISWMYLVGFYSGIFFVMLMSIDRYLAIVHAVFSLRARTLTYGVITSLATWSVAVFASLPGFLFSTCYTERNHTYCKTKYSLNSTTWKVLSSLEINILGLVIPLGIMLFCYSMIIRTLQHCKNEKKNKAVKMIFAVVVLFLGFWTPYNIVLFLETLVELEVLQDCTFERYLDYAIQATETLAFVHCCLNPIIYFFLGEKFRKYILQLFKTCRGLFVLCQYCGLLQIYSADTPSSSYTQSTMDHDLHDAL
Briefly: Calcium flux assay. Format: cell-based. The settings on record: Chem5-hCCR4 cells, CCL22 at EC80 of 1.5 nM, FLIPR Calcium 6 dye; read-out: Potency (IC50). Summed up:
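Chem5 cells expressing hCCR4 were serum-starved for 2 h, loaded with Calcium 6 dye plus 2.5 mM probenecid, then given compound for 1 h at 37 °C (0.5% DMSO). CCL22 was added from a 7.5 nM working solution (5× EC80 of 1.5 nM). IC50 came from ΔF/Fmin (485/525 nm) by 4-parameter fit.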

The results in this text go back to patent US10604526B2, “Chemokine receptor modulators and uses thereof” (RAPT THERAPEUTICS, INC., priority 2016, dated 2020).

By IC50 is commonly meant the point on the concentration scale where inhibition reaches its midpoint. Regarding `Cc1nn([C@H](C)c2ccc(Cl)cc2Cl)c2nc(N3CC(C4CCCN(CCO)C4)C3)cnc12` (mixture of isomers) [Example 40, 2-((S)-3-(1-(1-((R)-1-(2,4-Dichlorophenyl)ethyl)-3-methyl-1H-pyrazolo[3,4-b]pyrazin-6-yl)azetidin-3-yl)piperidin-1-yl)ethan-1-ol and 2-((R)-3-(1-(1-((R)-1-(2,4-dichlorophenyl)ethyl)-3-methyl-1H-pyrazolo[3,4-b]pyrazin-6-yl)azetidin-3-yl)piperidin-1-yl)ethan-1-ol], the IC50 is less than 100 nM.
Then `Cc1nn([C@H](C)c2ccc(Cl)cc2Cl)c2nc(N3CC([C@H]4CCCN(CC(=O)O)C4)C3)cnc12` (single isomer, unassigned) [Example 3], with more than 500 nM.
The same measure for “4-((S)-3-(1-(1-((R)-1-(2,4-Dichlorophenyl)ethyl)-3-methyl-1H-pyrazolo[3,4-d]pyrimidin-6-yl)azetidin-3-yl)piperidin-1-yl)butanoic acid and 4-((R)-3-(1-(1-((R)-1-(2,4-dichlorophenyl)ethyl)-3-methyl-1H-pyrazolo[3,4-d]pyrimidin-6-yl)azetidin-3-yl)piperidin-1-yl)butanoic acid [Example 20]”: 100 to 500 nM; for `CC(C)S(=O)(=O)NCCN1CCC[C@H](C2CN(c3cnc4c(C(F)(F)F)nn([C@H](C)c5ccc(Cl)cc5Cl)c4n3)C2)C1` (single isomer, unassigned) [Example 109]: less than 100 nM.
The same measure for `COC(=O)NCCN1CCC[C@@H](C2CN(c3cnc4c(C)nn([C@H](C)c5ccc(Cl)cc5Cl)c4n3)C2)C1` (single isomer, unassigned) [Example 85]: less than 100 nM.
Consider `C[C@H](c1ccc(Cl)cc1Cl)n1nc(C#N)c2ncc(N3CC(C4CCCN(CCS(C)(=O)=O)C4)C3)nc21` (mixture of isomers) [Example 23, 1-((R)-1-(2,4-Dichlorophenyl)ethyl)-6-(3-((S)-1-(2-(methylsulfonyl)ethyl)piperidin-3-yl)azetidin-1-yl)-1H-pyrazolo[3,4-b]pyrazine-3-carbonitrile and 1-((R)-1-(2,4-dichlorophenyl)ethyl)-6-(3-((R)-1-(2-(methylsulfonyl)ethyl)piperidin-3-yl)azetidin-1-yl)-1H-pyrazolo[3,4-b]pyrazine-3-carbonitrile], for which the IC50 was less than 100 nM.
The same measure for `CC(=O)NCCN1CCC[C@H](C2CN(c3cnc4c(C)nn([C@H](C)c5ccc(Cl)cc5Cl)c4n3)C2)C1` (single isomer, unassigned) [Example 100]: less than 100 nM; for `Cc1nn([C@H](C)c2ccc(Cl)cc2Cl)c2nc(N3CC([C@H]4CCCN(CCCC(=O)O)C4)C3)cnc12` (single isomer, unassigned) [Example 10]: less than 100 nM.
Then `C[C@H](c1ccc(Cl)cc1Cl)n1nc(C#N)c2ncc(N3CC([C@@H]4CCCN(CCCC(=O)N(C)C)C4)C3)nc21` (single isomer, unassigned) [Example 74], with 100 to 500 nM; and `CC(=O)NCCN1CCC[C@H](C2CN(c3cnc4c(C#N)nn([C@H](C)c5ccc(Cl)cc5Cl)c4n3)C2)C1` (single isomer, unassigned) [Example 92], with less than 100 nM; and `Cc1nn([C@H](C)c2ccc(Cl)cc2Cl)c2nc(N3CC(C4CCCN(CCNS(=O)(=O)C(C)C)C4)C3)cnc12` (single isomer, unassigned) [Example 97], with less than 100 nM.
Then `CC(C)C(=O)NCCN1CCC[C@H](C2CN(c3cnc4c(C(F)(F)F)nn([C@H](C)c5ccc(Cl)cc5Cl)c4n3)C2)C1` (single isomer, unassigned) [Example 52], with less than 100 nM; and `CC(C)N1CCC[C@@H](C2CN(c3cnc4c(C#N)nn([C@H](C)c5ccc(Cl)cc5Cl)c4n3)C2)C1` (single isomer, unassigned) [Example 76], with 100 to 500 nM; and `CC(O)CN1CCCC(C2CN(c3cnc4c(C#N)nn([C@H](C)c5ccc(Cl)cc5Cl)c4n3)C2)C1` (mixture of isomers) [Example 27], with less than 100 nM.
`CC(=O)NCCN1CCC[C@H](C2CN(c3cnc4c(C(F)(F)F)nn([C@H](C)c5ccc(Cl)cc5Cl)c4n3)C2)C1` (single isomer, unassigned) [Example 54]: the IC50 is less than 100 nM.
Then `Cc1nn([C@H](C)c2ccc(Cl)cc2Cl)c2nc(N3CC(C4CCCN(CCNS(C)(=O)=O)C4)C3)cnc12` (mixture of isomers) [Example 64, N-[2-[(R)-3-[1-[1-[(1R)-1-(2,4-dichlorophenyl)ethyl]-3-methyl-pyrazolo[3,4-b]pyrazin-6-yl]azetidin-3-yl]-1-piperidyl]ethyl]methanesulfonamide and N-[2-[(S)-3-[1-[1-[(1R)-1-(2,4-dichlorophenyl)ethyl]-3-methyl-pyrazolo[3,4-b]pyrazin-6-yl]azetidin-3-yl]-1-piperidyl]ethyl]methanesulfonamide], with less than 100 nM.
The same measure for `Cc1nn([C@H](C)c2ccc(Cl)cc2Cl)c2nc(N3CC(C4CCCN(CCNS(=O)(=O)C(C)C)C4)C3)cnc12` (mixture of isomers) [Example 65, N-(2-((R)-3-(1-(1-((R)-1-(2,4-dichlorophenyl)ethyl)-3-methyl-1H-pyrazolo[3,4-b]pyrazin-6-yl)azetidin-3-yl)piperidin-1-yl)ethyl)propane-2-sulfonamide and N-(2-((S)-3-(1-(1-((R)-1-(2,4-dichlorophenyl)ethyl)-3-methyl-1H-pyrazolo[3,4-b]pyrazin-6-yl)azetidin-3-yl)piperidin-1-yl)ethyl)propane-2-sulfonamide]: less than 100 nM.
As for `Cc1nn([C@H](C)c2ccc(Cl)cc2Cl)c2nc(N3CC([C@H]4CCCN(CCNC(=O)C(C)C)C4)C3)cnc12` (single isomer, unassigned) [Example 90], the IC50 was less than 100 nM.
Then `C[C@H](c1ccc(Cl)cc1Cl)n1nc(C#N)c2ncc(N3CC([C@@H]4CCCN(Cc5cnc[nH]5)C4)C3)nc21` (single isomer, unassigned) [Example 111], with 100 to 500 nM; and `C[C@H](c1ccc(Cl)cc1Cl)n1nc(C#N)c2ncc(N3CC([C@H]4CCCN(Cc5ncc[nH]5)C4)C3)nc21` (single isomer, unassigned) [Example 80], with less than 100 nM; and `CC(=O)NCCN1CCCC(C2CN(c3cnc4c(C)nn([C@H](C)c5ccc(Cl)cc5Cl)c4n3)C2)C1` (mixture of isomers) [Example 63, N-(2-((R)-3-(1-(1-((R)-1-(2,4-dichlorophenyl)ethyl)-3-methyl-1H-pyrazolo[3,4-b]pyrazin-6-yl)azetidin-3-yl)piperidin-1-yl)ethyl)acetamide and N-(2-((S)-3-(1-(1-((R)-1-(2,4-dichlorophenyl)ethyl)-3-methyl-1H-pyrazolo[3,4-b]pyrazin-6-yl)azetidin-3-yl)piperidin-1-yl)ethyl)acetamide], with less than 100 nM.
Take `C[C@H](c1ccc(Cl)cc1Cl)n1nc(C#N)c2ncc(N3CC([C@@H]4CCCN(CCCS(N)(=O)=O)C4)C3)nc21` (single isomer, unassigned) [Example 108]: the IC50 is 100 to 500 nM.
The same measure for `Cc1nn([C@H](C)c2ccc(Cl)cc2Cl)c2nc(N3CC([C@@H]4CCCN(CCO)C4)C3)ncc12` (single isomer, unassigned) [Example 39]: more than 500 nM.
The same measure for `CC(C)N1CCC[C@H](C2CN(c3cnc4c(C(F)(F)F)nn([C@H](C)c5ccc(Cl)cc5Cl)c4n3)C2)C1` [Example 102, 1-((R)-1-(2,4-dichlorophenyl)ethyl)-6-(3-((R)-1-isopropylpiperidin-3-yl)azetidin-1-yl)-3-(trifluoromethyl)-1H-pyrazolo[3,4-b]pyrazine]: 100 to 500 nM; for “1-((R)-1-(2,4-dichlorophenyl)ethyl)-6-(3-((R)-1-((R)-4-hydroxybutan-2-yl)piperidin-3-yl)azetidin-1-yl)-1H-pyrazolo[3,4-b]pyrazine-3-carbonitrile and 1-((R)-1-(2,4-dichlorophenyl)ethyl)-6-(3-((R)-1-((S)-4-hydroxybutan-2-yl)piperidin-3-yl)azetidin-1-yl)-1H-pyrazolo[3,4-b]pyrazine-3-carbonitrile [Example 82]”: less than 100 nM; for `Cc1nn([C@H](C)c2ccc(Cl)cc2Cl)c2nc(N3CC([C@H]4CCCN(CCNS(C)(=O)=O)C4)C3)cnc12` (single isomer, unassigned) [Example 99]: less than 100 nM.
Then `CC(=O)N[C@H](C)CN1CCC[C@H](C2CN(c3cnc4c(C(F)(F)F)nn([C@H](C)c5ccc(Cl)cc5Cl)c4n3)C2)C1` [Example 105, N—((R)-1-((R)-3-(1-(1-((R)-1-(2,4-dichlorophenyl)ethyl)-3-(trifluoromethyl)-1H-pyrazolo[3,4-b]pyrazin-6-yl)azetidin-3-yl)piperidin-1-yl)propan-2-yl)acetamide], with less than 100 nM; and `Cc1nn([C@H](C)c2ccc(Cl)cc2Cl)c2nc(N3CC([C@@H]4CCCN(CCCO)C4)C3)cnc12` (single isomer, unassigned) [Example 15], with 100 to 500 nM.
Regarding `C[C@H](O)CN1CCC[C@H](C2CN(c3cnc4c(C(F)(F)F)nn([C@H](C)c5ccc(Cl)cc5Cl)c4n3)C2)C1` [Example 104, (S)-1-((R)-3-(1-(1-((R)-1-(2,4-dichlorophenyl)ethyl)-3-(trifluoromethyl)-1H-pyrazolo[3,4-b]pyrazin-6-yl)azetidin-3-yl)piperidin-1-yl)propan-2-ol], the IC50 was less than 100 nM.
